These results are taken from patent publication US11666584B2, “Steroidal hormones for the treatment and prevention of wave burst arrhythmia” (ASSISTANCE PUBLIQUE—HOPITAUX DE PARIS, priority 2016, dated 2023).

Structures are written as SMILES. Where two headings read alike, the source gives them in different places.

Series [1] has as its system transgenic rabbits with a long QT interval. To be noted: cited from earlier work.
In series [2] the target is T1, IKr potassium channel (Homo sapiens, UniProt Q12809). The method, then:
Statistics: ns represents p>0.1. Various tests (Chi^2 test with trend, one-way ANOVA with Tukey or Kruskal-Wallis post-test with Dunn's post-test) were used. The quantitative data are presented as a mean±standard error or median with interquartile range.
The PC1 value is obtained by analysis by main components of the variables ΔQTc (%), ΔTpTe (%) and ΔTAmp (%) and quantitatively reflects the IKr inhibition obtained three hours after taking sotalol.
The ΔQTcF, ΔTpTe and ΔTAmp were also calculated.

The conditions of series [3]: characteristic of the pill's progestogen; cited from earlier work.
Series [4] has as its target T2, androgen receptor (NR3C4) (Homo sapiens, UniProt P10275).
T2 sequence (P10275 1-920): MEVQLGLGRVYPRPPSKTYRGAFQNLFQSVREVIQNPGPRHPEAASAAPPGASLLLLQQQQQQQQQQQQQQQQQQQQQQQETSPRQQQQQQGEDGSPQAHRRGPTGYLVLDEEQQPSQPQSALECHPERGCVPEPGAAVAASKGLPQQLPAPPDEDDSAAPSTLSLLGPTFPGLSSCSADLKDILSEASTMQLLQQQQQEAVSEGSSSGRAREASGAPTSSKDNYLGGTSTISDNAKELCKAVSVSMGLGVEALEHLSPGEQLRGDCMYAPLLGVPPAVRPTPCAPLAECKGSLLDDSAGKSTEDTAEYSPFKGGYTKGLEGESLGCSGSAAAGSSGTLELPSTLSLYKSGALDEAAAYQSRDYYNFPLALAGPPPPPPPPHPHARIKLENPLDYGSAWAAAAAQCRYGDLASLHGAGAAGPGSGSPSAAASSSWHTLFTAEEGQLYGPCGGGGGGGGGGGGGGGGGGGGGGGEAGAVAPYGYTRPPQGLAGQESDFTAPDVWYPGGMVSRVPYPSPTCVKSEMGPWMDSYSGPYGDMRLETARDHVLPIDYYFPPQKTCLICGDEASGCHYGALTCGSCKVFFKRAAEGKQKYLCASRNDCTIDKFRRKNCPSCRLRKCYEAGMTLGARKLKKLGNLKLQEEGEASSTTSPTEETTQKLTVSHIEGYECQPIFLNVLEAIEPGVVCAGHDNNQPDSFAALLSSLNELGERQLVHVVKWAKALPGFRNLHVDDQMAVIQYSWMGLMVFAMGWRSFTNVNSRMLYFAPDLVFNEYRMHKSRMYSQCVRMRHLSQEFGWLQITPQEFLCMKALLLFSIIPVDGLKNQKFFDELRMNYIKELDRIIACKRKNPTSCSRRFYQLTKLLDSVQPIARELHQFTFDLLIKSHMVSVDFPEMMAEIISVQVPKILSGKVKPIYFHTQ
To be noted: characteristic of the progestogen; cited from earlier work.

The target in series [5] is T1, IKr potassium channel. Nature of the series: ECG changes three hours after a single oral dose of 80 mg sotalol in healthy volunteers (Example 1). Format: in vivo. Also noted: from tissue; host or cells: heart of living human volunteers (in vivo ECG). The conditions noted are these: for decrease in TAmp / increase in TpTe: H3 after 80 mg sotalol vs basal; for subjects exhibiting a double peak (notch) / subjects exhibiting a double peak (notch), proportion: after 80 mg sotalol. The procedure: Results obtained on a cohort of 995 volunteers in good health, from 18 to 60 years old, of European or North African origin, were used for the development of a marker representative of inhibition of the IKr potassium channel.
Briefly, the electrocardiogram (ECG) of the patients (each one in triplicate, for 10 seconds) was recorded after 10 minutes at rest lying on their back. A single oral dose of 80 mg of sotalol was then given to the patients and the ECG monitoring was continued. Three hours after the sotalol had been taken, the ECG was again recorded (in triplicate) after the subjects had remained lying on their back for 10 minutes.
The QTcF (QT corrected using Fridericia's formula), TpTe (interval between the first peak and the end of the T wave), TAmp (amplitude of the first peak of the T wave) and the presence of double peaks in the T wave (called notches) were quantified. The Fridericia correction (QTcF) was used to correct the QT with respect to the heart rate, in accordance with the ICH guidelines E14.
TpTe was measured using the tangent method, in triplicate, on a representative heart beat (averaged representation of an ECG of 10 seconds) on the V3, V4 and V5 derivations. In the event of a double peak of the T wave (notch), the peak taken into consideration was the first peak, even if the amplitude of the T wave was smaller for this peak. The average value obtained was retained. In the event of it being impossible to measure TpTe on V3, V4 or V5, the measurement was instead carried out on V2 (for V3), or V6 (for V4/V5).
In order to measure TAmp, positioning was on the site of the maximum amplitude of the first peak of the T wave on a representative beat (averaged representation of an ECG of 10 seconds) on the DII, V2 and V3 leads. The average of the TAmp values resulting from these three leads, and measured on three different ECGs of 10 seconds (in triplicate), was calculated and retained. If it was not possible to measure a TAmp on one of these leads (in particular because of a low value (<0.1 mV)), the V4 lead was used.
QTcF was measured using the tangent method on the DII lead for three consecutive beats and the average value of an evaluation in triplicate was retained.
For these parameters, the difference between the value obtained at H3 and the basal value was measured. This difference was expressed as percentage relative to the basal value, and the calculations were carried out such that the value calculated is positive.
The following calculations were therefore carried out: ΔQTcF (%)=(QTcF at H3−QTcF basal)/(QTcF basal)×100 ΔTpTe (%)=(TpTe at H3−TpTe basal)/(TpTe basal)×100 ΔTAmp (%)=(TAmp basal−TAmp at H3)/(TAmp basal)×100
In order to evaluate the double peaks (notches), all the ECGs were evaluated independently by two investigators. The patients were described as notchers or non-notchers, in the event of agreements between the two investigators.
The statistical analyses were carried out with the R software (https://www.r-project.org/).

A further series deals with torsades de pointes. Kind of series: Clinical case: testosterone in a person with hypogonadism and arrhythmic storm on torsades de pointes (Example 3). Format: in vivo, human. The method, then: Peripheral hypogonadism was identified in a person suffering from ischemic cardiopathy and from Erdheim-Chester disease with arrhythmic storm on torsades de pointes with long QT and notching (double peak (notch) of the T wave) promoted by iatrogenesis and bradycardia with more than seven episodes in less than one week.
Testosterone (Androtardyl, testosterone enantate 250 mg/ml) was administered to the patient in amounts which made it possible to maintain a testosterone level making it possible to correct their hypogonadism, the bradycardia was corrected and an implantable defibrillator was implanted as secondary prevention.

The mark [6] stands for this setting: first of the two cohorts (exploration).
[7] abbreviates: second of the two cohorts (replication).
Setting [8] is: three hours after single oral dose of 80 mg sotalol vs basal.
The mark [9] stands for this setting: three hours after 80 mg sotalol, difference between groups (FIG. 3).

T1 sequence (Q12809 whole entry): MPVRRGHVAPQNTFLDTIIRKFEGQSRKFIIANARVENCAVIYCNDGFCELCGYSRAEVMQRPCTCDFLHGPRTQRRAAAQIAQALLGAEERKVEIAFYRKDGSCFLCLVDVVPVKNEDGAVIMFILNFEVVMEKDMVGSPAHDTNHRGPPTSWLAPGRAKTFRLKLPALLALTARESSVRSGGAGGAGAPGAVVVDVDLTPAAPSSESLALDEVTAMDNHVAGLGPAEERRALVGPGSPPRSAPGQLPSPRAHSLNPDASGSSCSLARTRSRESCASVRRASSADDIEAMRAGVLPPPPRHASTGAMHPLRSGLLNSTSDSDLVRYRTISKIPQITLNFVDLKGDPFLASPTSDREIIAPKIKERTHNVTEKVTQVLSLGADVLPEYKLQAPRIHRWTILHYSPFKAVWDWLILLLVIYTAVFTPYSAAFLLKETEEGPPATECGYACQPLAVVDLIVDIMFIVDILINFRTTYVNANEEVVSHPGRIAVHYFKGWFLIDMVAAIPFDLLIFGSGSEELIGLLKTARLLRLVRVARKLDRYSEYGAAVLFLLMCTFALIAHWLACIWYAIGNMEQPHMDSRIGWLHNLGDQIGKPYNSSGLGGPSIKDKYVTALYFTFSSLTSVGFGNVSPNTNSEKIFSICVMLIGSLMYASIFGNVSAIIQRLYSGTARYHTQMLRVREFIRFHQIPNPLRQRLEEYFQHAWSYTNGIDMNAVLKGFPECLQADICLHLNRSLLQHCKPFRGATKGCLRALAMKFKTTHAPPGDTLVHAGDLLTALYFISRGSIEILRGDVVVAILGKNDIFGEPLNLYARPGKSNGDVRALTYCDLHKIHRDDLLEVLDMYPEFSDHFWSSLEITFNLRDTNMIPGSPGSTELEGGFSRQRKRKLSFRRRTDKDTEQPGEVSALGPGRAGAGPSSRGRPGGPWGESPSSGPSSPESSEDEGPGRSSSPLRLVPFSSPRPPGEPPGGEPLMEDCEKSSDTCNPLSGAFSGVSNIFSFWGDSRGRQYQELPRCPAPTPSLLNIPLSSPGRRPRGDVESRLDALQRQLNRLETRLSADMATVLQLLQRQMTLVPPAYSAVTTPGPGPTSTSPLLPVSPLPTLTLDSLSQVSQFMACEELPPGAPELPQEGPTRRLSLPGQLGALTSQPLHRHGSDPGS

As for `CC(=O)[C@H]1CC[C@H]2[C@@H]3CCC4=CC(=O)CC[C@]4(C)[C@H]3CC[C@]12C` [progesterone], in series [1], the “effect on sudden death” value is given as “protective effect”.

For the compound `C#C[C@]1(O)CC[C@H]2[C@@H]3CCC4=CCCC[C@@H]4[C@H]3C(=C)C[C@@]21CC` [desogestrel], the “incidence of double peaks (notches)” value at IKr potassium channel [2] (female, human, in vivo, 3 h) was determined as 7.3%. Further, at IKr potassium channel [2] (in vivo), the “effect with regard to the appearance of a double peak (notch) of the T wave” value is given as “protective” and the “risk of drug-induced IKr inhibition” value was “neutral”. In series [3], the Progestogenic activity entry is given as “High”.

On to `C[C@]12CCC3=C4CCC(=O)C=C4CC[C@H]3[C@@H]1CC[C@@]2(O)CC#N` [dienogest], for which the Androgenicity entry in series [4] was “low androgenic activity, or even an anti-androgenic activity”.

In the case of `C#C[C@]1(O)CC[C@H]2[C@@H]3CCC4=CC(=O)CC[C@@H]4[C@H]3CC[C@@]21CC` [levonorgestrel], the “effect with regard to the increase in QT” value at IKr potassium channel [2] (conclusion in words) was “protective”. For the same compound, the “incidence of double peaks (notches)” value at IKr potassium channel [2] (female, human, in vivo, 3 h) was determined as 16.4%. Also, at IKr potassium channel [2] (in vivo), the “risk of drug-induced IKr inhibition” value was “neutral”. For the same compound, in series [3], the Progestogenic activity result was “High”.

Take `CC(C)NCC(O)c1ccc(NS(C)(=O)=O)cc1` (centres unmarked) [sotalol]: the “average QTc increase observed with sotalol” value on IKr potassium channel [2] (study of the present application, as summarised) was 20 ms. In addition, the “decrease in TAmp” value on IKr potassium channel [5] (exploration cohort) worked out at 13.6±15.7%; at IKr potassium channel [5] (replication cohort), 12.8±15.3%. The results for the “increase in TpTe” value on IKr potassium channel [5] (exploration cohort) and at IKr potassium channel [5] (replication cohort) were 14.2±15.6% and 15.9±20.5%, respectively. In addition, the “subjects exhibiting a double peak (notch)” value at IKr potassium channel [5] (setting [6]) was 40 subjects; at IKr potassium channel [5] (setting [7]), 51 subjects. The “subjects exhibiting a double peak (notch), proportion” value at IKr potassium channel [5] (setting [6]) was determined as 8%; at IKr potassium channel [5] (setting [7]) it was 10%. In addition, the PC1 value at IKr potassium channel [5] (non-notchers, exploration cohort) was 0.3±1.1; on IKr potassium channel [5] (non-notchers, replication cohort), 0.3±1.1; at IKr potassium channel [5] (notchers, exploration cohort, PC1 correlates negatively with ΔQTc, ΔTAmp, ΔTpTe), −2.5±1.5; at IKr potassium channel [5] (notchers, replication cohort) it was −2.3±1.8. In addition, the “absolute change in the duration of QTcF” value on IKr potassium channel [5] (setting [8]) was 21.4 ± 14 ms. Besides, the “relative change in the duration of QTcF” value on IKr potassium channel [5] (setting [8]) worked out at 5.5±3.5%.

`CCCCCCC(=O)O[C@H]1CC[C@H]2[C@@H]3CCC4=CC(=O)CC[C@]4(C)[C@H]3CC[C@]12C` [testosterone, testosterone enantate]: in the series on torsades de pointes (following the introduction of testosterone, one patient), the repolarization entry is reported as “normalized”. Moreover, the “recurrence of torsades de pointes (defibrillator monitoring)” value in the series on torsades de pointes (three months following the introduction of testosterone, despite reintroduction of QTc-prolonging drug (Vemurafenob)) is “absence of recurrence of torsades de pointes”.

As to `C#C[C@]1(O)C=C[C@H]2[C@@H]3CCC4=CC(=O)CC[C@@H]4[C@H]3CC[C@@]21CC` [gestodene], at IKr potassium channel [2] (female, human, in vivo, 3 h), the “incidence of double peaks (notches)” value turned out to be 23.5%. The Progestogenic activity result in series [3] was “High”. The Androgenicity entry in series [4] is “Intermediate/variable”.

Take `C[C@]12CCC(=O)C=C1[C@@H]1C[C@@H]1[C@H]1[C@@H]3[C@@H]4C[C@@H]4[C@@]4(CCC(=O)O4)[C@@]3(C)CC[C@@H]12` [drospirenone]: the “risk of drug-induced IKr inhibition” value on IKr potassium channel [2] (conclusion in words, by pill type) was “greatest risk”. Further, on IKr potassium channel [2] (setting [9]), the “increase in QTcF greater than that of patients taking levonorgestrel” value was 7.0 ± 2.7 ms and the “increase in QTcF greater than that of patients without hormonal contraception” value came out at 6.6 ± 2.6 ms. At IKr potassium channel [2] (three hours after administration of Sotalol, by pill type (FIG. 4)), the “incidence of double peaks (notches)” value is on record as 25.8%. The Progestogenic activity result in series [3] is “Intermediate”.
